The OligoGym collection
Several values for one entry are separate records, joined by “and”; a condition that tells them apart may be missing. Equal values may be shown once. HELM strings list units from the 5' end as sugar, base in round brackets, then linkage (d deoxyribose, r ribose, m 2'-O-methyl, p phosphodiester). Methylation of C is not given here. [moe] = 2'-O-(2-methoxyethyl) (MOE); [cEt] = constrained ethyl (cEt); [sp] = phosphorothioate linkage

Target: HBV
Settings: ASO

Substance: RNA1{[moe](C)[sp].[moe](G)[sp].[moe](T)[sp].d(G)[sp].d(C)[sp].d(A)[sp].d(G)[sp].d(A)[sp].d(G)[sp].d(G)[sp].d(T)[sp].d(G)[sp].d(A)[sp].[cEt](A)[sp].[cEt](G)[sp].[cEt](C)}$$$$V2.0
- target mRNA inhibition (HepG2, 0.07 µM): 72% and 60%

Substance: RNA1{[moe](A)[sp].[moe](A)[sp].[moe](C)[sp].[moe](C)[sp].[moe](A)[sp].d(C)[sp].d(T)[sp].d(G)[sp].d(A)[sp].d(A)[sp].d(C)[sp].d(A)[sp].d(A)[sp].d(A)[sp].[moe](T)[sp].[moe](G)}$$$$V2.0
- target mRNA inhibition (HepG2, 0.07 µM): 24% and 20%

Substance: RNA1{[moe](G)[sp].[moe](A)[sp].[moe](A)[sp].[moe](G)[sp].d(T)[sp].d(C)[sp].d(C)[sp].d(A)[sp].d(C)[sp].d(C)[sp].d(A)[sp].d(C)[sp].d(G)[sp].[moe](A)[sp].[moe](G)[sp].[moe](T)[sp].[moe](C)}$$$$V2.0
- target mRNA inhibition (HepG2, 0.07 µM): 48% and 36%

Substance: RNA1{[moe](G)[sp].[moe](A)[sp].[moe](G)[sp].[moe](A)[sp].[moe](A)[sp].d(G)[sp].d(T)[sp].d(C)[sp].d(C)[sp].d(A)[sp].d(C)[sp].d(C)[sp].d(A)[sp].d(C)[sp].[moe](G)[sp].[moe](A)[sp].[moe](G)}$$$$V2.0
- target mRNA inhibition (HepG2, 0.07 µM): 20% and 13%

Substance: RNA1{[moe](G)[sp].[cEt](C)[sp].[cEt](A)[sp].d(G)[sp].d(A)[sp].d(G)[sp].d(G)[sp].d(T)[sp].d(G)[sp].d(A)[sp].d(A)[sp].d(G)[sp].d(C)[sp].[cEt](G)[sp].[cEt](A)[sp].[moe](A)}$$$$V2.0
- target mRNA inhibition (HepG2, 0.07 µM): 70%

Substance: RNA1{[moe](G)[sp].[moe](T)[sp].[moe](G)[sp].[moe](C)[sp].[moe](A)[sp].[moe](G)[sp].d(A)[sp].d(G)[sp].d(G)[sp].d(T)[sp].d(G)[sp].d(A)[sp].d(A)[sp].d(G)[sp].d(C)[sp].[moe](G)[sp].[moe](A)}$$$$V2.0
- target mRNA inhibition (HepG2, 0.0092593 µM): 7%
- target mRNA inhibition (HepG2, 0.0277778 µM): 4%
- target mRNA inhibition (HepG2, 0.07 µM): 78% and 70%
- target mRNA inhibition (HepG2, 0.0833333 µM): 38%
- target mRNA inhibition (HepG2, 0.25 µM): 76%

Substance: RNA1{[moe](C)[sp].[cEt](C)[sp].d(A)[sp].d(A)[sp].d(T)[sp].d(T)[sp].d(T)[sp].d(A)[sp].d(T)[sp].d(G)[sp].d(C)[sp].d(C)[sp].[cEt](T)[sp].[moe](A)[sp].[cEt](C)[sp].[moe](A)}$$$$V2.0
- target mRNA inhibition (HepG2, 0.07 µM): 37% and 55%

Substance: RNA1{[moe](T)[sp].[moe](C)[sp].[moe](C)[sp].[moe](G)[sp].[moe](C)[sp].d(A)[sp].d(G)[sp].d(T)[sp].d(A)[sp].d(T)[sp].d(G)[sp].d(G)[sp].d(A)[sp].d(T)[sp].[moe](C)[sp].[moe](G)}$$$$V2.0
- target mRNA inhibition (HepG2, 0.07 µM): 75% and 59%

Substance: RNA1{[moe](A)[sp].[moe](C)[sp].d(T)[sp].d(G)[sp].d(G)[sp].d(A)[sp].d(G)[sp].d(C)[sp].d(C)[sp].d(A)[sp].d(C)[sp].[moe](C)[sp].[moe](A)[sp].[moe](G)[sp].[moe](C)[sp].[moe](A)[sp].[moe](G)}$$$$V2.0
- target mRNA inhibition (HepG2, 0.07 µM): 70% and 61%

Substance: RNA1{[moe](G)[sp].[moe](A)[sp].[moe](T)[sp].[moe](G)[sp].d(A)[sp].d(G)[sp].d(G)[sp].d(C)[sp].d(A)[sp].d(T)[sp].d(A)[sp].d(G)[sp].d(C)[sp].[moe](A)[sp].[moe](G)[sp].[moe](C)}$$$$V2.0
- target mRNA inhibition (HepG2, 0.07 µM): 34% and 35%

Substance: RNA1{[moe](T)[sp].[moe](T)[sp].[moe](T)[sp].[moe](A)[sp].d(T)[sp].d(G)[sp].d(C)[sp].d(C)[sp].d(T)[sp].d(A)[sp].d(C)[sp].d(A)[sp].d(G)[sp].[moe](C)[sp].[moe](C)[sp].[moe](T)[sp].[moe](C)}$$$$V2.0
- target mRNA inhibition (HepG2, 0.07 µM): 54% and 37%

Substance: RNA1{[moe](A)[sp].[cEt](A)[sp].[cEt](G)[sp].d(A)[sp].d(T)[sp].d(G)[sp].d(A)[sp].d(G)[sp].d(G)[sp].d(C)[sp].d(A)[sp].d(T)[sp].d(A)[sp].[cEt](G)[sp].[cEt](C)[sp].[moe](A)}$$$$V2.0
- target mRNA inhibition (HepG2, 0.07 µM): 64% and 62%

Substance: RNA1{[moe](C)[sp].[moe](C)[sp].[moe](G)[sp].[moe](C)[sp].d(A)[sp].d(G)[sp].d(T)[sp].d(A)[sp].d(T)[sp].d(G)[sp].d(G)[sp].d(A)[sp].d(T)[sp].[moe](C)[sp].[moe](G)[sp].[moe](G)}$$$$V2.0
- target mRNA inhibition (HepG2, 0.07 µM): 76% and 71%

Substance: RNA1{[moe](A)[sp].[moe](G)[sp].[moe](G)[sp].[moe](C)[sp].[moe](A)[sp].d(T)[sp].d(A)[sp].d(G)[sp].d(C)[sp].d(A)[sp].d(G)[sp].d(C)[sp].d(A)[sp].d(G)[sp].[moe](G)[sp].[moe](A)}$$$$V2.0
- target mRNA inhibition (HepG2, 0.0092593 µM): 9%
- target mRNA inhibition (HepG2, 0.0277778 µM): 13%
- target mRNA inhibition (HepG2, 0.07 µM): 66% and 56%
- target mRNA inhibition (HepG2, 0.0833333 µM): 29%
- target mRNA inhibition (HepG2, 0.25 µM): 51%

Substance: RNA1{[moe](A)[sp].[cEt](T)[sp].d(G)[sp].d(A)[sp].d(G)[sp].d(G)[sp].d(C)[sp].d(A)[sp].d(T)[sp].d(A)[sp].d(G)[sp].d(C)[sp].[cEt](A)[sp].[moe](G)[sp].[cEt](C)[sp].[moe](A)}$$$$V2.0
- target mRNA inhibition (HepG2, 0.07 µM): 63% and 57%

Substance: RNA1{[moe](G)[sp].[moe](T)[sp].d(G)[sp].d(C)[sp].d(A)[sp].d(G)[sp].d(A)[sp].d(G)[sp].d(G)[sp].d(T)[sp].d(G)[sp].[moe](A)[sp].[moe](A)[sp].[moe](G)[sp].[moe](C)[sp].[moe](G)[sp].[moe](A)}$$$$V2.0
- target mRNA inhibition (HepG2, 0.07 µM): 70% and 66%

Substance: RNA1{[moe](C)[sp].[moe](A)[sp].[moe](C)[sp].[moe](T)[sp].[moe](A)[sp].[moe](G)[sp].d(T)[sp].d(A)[sp].d(A)[sp].d(A)[sp].d(C)[sp].d(T)[sp].d(G)[sp].d(A)[sp].d(G)[sp].[moe](C)[sp].[moe](C)}$$$$V2.0
- target mRNA inhibition (HepG2, 0.0092593 µM): 12%
- target mRNA inhibition (HepG2, 0.0277778 µM): 40%
- target mRNA inhibition (HepG2, 0.07 µM): 87% and 72%
- target mRNA inhibition (HepG2, 0.0833333 µM): 42%
- target mRNA inhibition (HepG2, 0.25 µM): 65%

Substance: RNA1{[moe](A)[sp].[moe](G)[sp].[moe](G)[sp].[moe](C)[sp].[moe](A)[sp].d(T)[sp].d(A)[sp].d(G)[sp].d(C)[sp].d(A)[sp].d(G)[sp].d(C)[sp].d(A)[sp].d(G)[sp].[moe](G)[sp].[moe](A)[sp].[moe](T)}$$$$V2.0
- target mRNA inhibition (HepG2, 0.07 µM): 61% and 56%

Substance: RNA1{[moe](G)[sp].[cEt](T)[sp].d(G)[sp].d(C)[sp].d(A)[sp].d(G)[sp].d(A)[sp].d(G)[sp].d(G)[sp].d(T)[sp].d(G)[sp].d(A)[sp].[cEt](A)[sp].[moe](G)[sp].[cEt](C)[sp].[moe](G)}$$$$V2.0
- target mRNA inhibition (HepG2, 0.0092593 µM): 14%
- target mRNA inhibition (HepG2, 0.0277778 µM): 33%
- target mRNA inhibition (HepG2, 0.07 µM): 74% and 83%
- target mRNA inhibition (HepG2, 0.0833333 µM): 70%
- target mRNA inhibition (HepG2, 0.25 µM): 77%

Substance: RNA1{[moe](A)[sp].[cEt](G)[sp].[cEt](A)[sp].d(T)[sp].d(G)[sp].d(A)[sp].d(G)[sp].d(G)[sp].d(C)[sp].d(A)[sp].d(T)[sp].d(A)[sp].d(G)[sp].[cEt](C)[sp].[cEt](A)[sp].[moe](G)}$$$$V2.0
- target mRNA inhibition (HepG2, 0.07 µM): 59% and 56%

Substance: RNA1{[moe](C)[sp].[moe](A)[sp].[moe](G)[sp].[moe](A)[sp].d(G)[sp].d(G)[sp].d(T)[sp].d(G)[sp].d(A)[sp].d(A)[sp].d(G)[sp].d(C)[sp].d(G)[sp].[moe](A)[sp].[moe](A)[sp].[moe](G)}$$$$V2.0
- target mRNA inhibition (HepG2, 0.07 µM): 47% and 50%

Substance: RNA1{[moe](A)[sp].[moe](C)[sp].[moe](T)[sp].[moe](G)[sp].[moe](G)[sp].d(A)[sp].d(G)[sp].d(C)[sp].d(C)[sp].d(A)[sp].d(C)[sp].d(C)[sp].d(A)[sp].d(G)[sp].[moe](C)[sp].[moe](A)}$$$$V2.0
- target mRNA inhibition (HepG2, 0.07 µM): 54% and 48%

Substance: RNA1{[moe](G)[sp].[moe](G)[sp].[moe](C)[sp].[moe](A)[sp].d(T)[sp].d(A)[sp].d(G)[sp].d(C)[sp].d(A)[sp].d(G)[sp].d(C)[sp].d(A)[sp].d(G)[sp].[moe](G)[sp].[moe](A)[sp].[moe](T)[sp].[moe](G)}$$$$V2.0
- target mRNA inhibition (HepG2, 0.07 µM): 57% and 53%

Substance: RNA1{[moe](C)[sp].[moe](A)[sp].d(C)[sp].d(T)[sp].d(A)[sp].d(G)[sp].d(T)[sp].d(A)[sp].d(A)[sp].d(A)[sp].d(C)[sp].[moe](T)[sp].[moe](G)[sp].[moe](A)[sp].[moe](G)[sp].[moe](C)}$$$$V2.0
- target mRNA inhibition (HepG2, 0.07 µM): 52% and 53%

Substance: RNA1{[moe](A)[sp].[moe](G)[sp].[moe](A)[sp].[moe](T)[sp].[moe](G)[sp].d(A)[sp].d(G)[sp].d(G)[sp].d(C)[sp].d(A)[sp].d(T)[sp].d(A)[sp].d(G)[sp].d(C)[sp].[moe](A)[sp].[moe](G)[sp].[moe](C)}$$$$V2.0
- target mRNA inhibition (HepG2, 0.07 µM): 41% and 34%

Substance: RNA1{[moe](A)[sp].[moe](T)[sp].[moe](T)[sp].[cEt](T)[sp].[cEt](A)[sp].d(T)[sp].d(G)[sp].d(C)[sp].d(C)[sp].d(T)[sp].d(A)[sp].d(C)[sp].[cEt](A)[sp].[cEt](G)[sp].[moe](C)[sp].[moe](C)[sp].[moe](T)}$$$$V2.0
- target mRNA inhibition (HepG2, 0.009375 µM): 4%
- target mRNA inhibition (HepG2, 0.01875 µM): 30%
- target mRNA inhibition (HepG2, 0.0375 µM): 44%
- target mRNA inhibition (HepG2, 0.075 µM): 52%
- target mRNA inhibition (HepG2, 0.15 µM): 67%
- target mRNA inhibition (HepG2, 0.3 µM): 76%

Substance: RNA1{[moe](C)[sp].[moe](A)[sp].d(C)[sp].d(T)[sp].d(A)[sp].d(G)[sp].d(T)[sp].d(A)[sp].d(A)[sp].d(A)[sp].d(C)[sp].[moe](T)[sp].[moe](G)[sp].[moe](A)[sp].[moe](G)[sp].[moe](C)[sp].[moe](C)}$$$$V2.0
- target mRNA inhibition (HepG2, 0.07 µM): 73% and 66%

Substance: RNA1{[moe](T)[sp].[moe](A)[sp].[moe](T)[sp].d(G)[sp].d(C)[sp].d(C)[sp].d(T)[sp].d(A)[sp].d(C)[sp].d(A)[sp].d(G)[sp].d(C)[sp].[moe](C)[sp].[moe](T)[sp].[moe](C)[sp].[moe](C)}$$$$V2.0
- target mRNA inhibition (HepG2, 0.07 µM): 49% and 46%

Substance: RNA1{[moe](G)[sp].[moe](A)[sp].[moe](G)[sp].[cEt](G)[sp].[cEt](T)[sp].d(G)[sp].d(A)[sp].d(A)[sp].d(G)[sp].d(C)[sp].d(G)[sp].d(A)[sp].[cEt](A)[sp].[cEt](G)[sp].[moe](T)[sp].[moe](G)[sp].[moe](C)}$$$$V2.0
- target mRNA inhibition (HepG2, 0.009375 µM): 19%
- target mRNA inhibition (HepG2, 0.01875 µM): 27%
- target mRNA inhibition (HepG2, 0.0375 µM): 35%
- target mRNA inhibition (HepG2, 0.075 µM): 48%
- target mRNA inhibition (HepG2, 0.15 µM): 50%
- target mRNA inhibition (HepG2, 0.3 µM): 63%
